Where “and” joins values, the source holds several entries; their conditions need not be identical. Equal entries are not always repeated.
Assay: Solid stability measurements (appearance, assay and total related substances by HPLC)
Type: physicochemical
Settings: for change of assay and TRS (in words): 60° C./75% RH at end of the first and second weeks; for Remaining (%): one value for both samples, vs −20° C. control; for Appearance / TRS (%): samples 1 and 2
Description: The detailed chromatographic conditions are listed hereinbelow. The typical retention time of febuxostat main peak is 8.2 min. [table] Testing conditions: 40° C., 60° C., 40° C./RH 75%, 60° C./RH 75%, light Testing procedure: About 3 mg of a febuxostat form were weighed in a glass vial and stored under the different conditions for 1 week and 2 weeks, separately. The same febuxostat form was stored at −20° C. as control. The test was conducted in duplication. The physical appearance, assay and total related substances of each of the febuxostat forms were measured by HPLC at the end of the first and second weeks.

Row | SMILES | change of assay and TRS (in words) (40° C., 60° C., 40° C./75% RH) | Remaining (%) (40° C., 7 d) | Appearance (40° C., 7 d) | TRS (%) (40° C., 7 d) | Remaining (%) (40° C., 14 d) | Appearance (40° C., 14 d) | TRS (%) (40° C., 14 d) | Remaining (%) (40° C./75% RH, 7 d) | Appearance (40° C./75% RH, 7 d) | TRS (%) (40° C./75% RH, 7 d) | Remaining (%) (40° C./75% RH, 14 d) | Appearance (40° C./75% RH, 14 d) | TRS (%) (40° C./75% RH, 14 d) | Remaining (%) (60° C., 7 d) | Appearance (60° C., 7 d) | TRS (%) (60° C., 7 d) | Remaining (%) (60° C., 14 d) | Appearance (60° C., 14 d) | TRS (%) (60° C., 14 d) | Remaining (%) (60° C./75% RH, 7 d) | also measured
1 | Cc1nc(-c2ccc(OCC(C)C)c(C#N)c2)sc1C(=O)O [Form IX, 2-(3-cyano-4-isobutoxyphenyl)-4-methyl-5-thiazolecarboxylic acid] | no significant change | 99.70 | No change | 1.28% and 1.30% | 100.02 | No change | 1.29% and 1.32% | 100.47 | No change | 1.34% and 1.31% | 99.47 | No change | 1.35% and 1.33% | 100.80 | No change | 1.37% and 1.35% | 100.41 | No change | 1.38% and 1.35% | 100.89 | Appearance (60° C./75% RH, 7 d): No change; TRS (%) (60° C./75% RH, 7 d): 1.33%; Remaining (%) (60° C./75% RH, 14 d): 100.07%; Appearance (60° C./75% RH, 14 d): No change; TRS (%) (60° C./75% RH, 14 d): 1.35% and 1.33%; Remaining (%) (Light, 7 d): 97.50%; Appearance (Light, 7 d): Light yellow; TRS (%) (Light, 7 d): 3.07% and 3.05%; Remaining (%) (Light, 14 d): 92.81%; Appearance (Light, 14 d): Light yellow; TRS (%) (Light, 14 d): 6.30% and 6.54%; Appearance (−20° C. (control), 7 d): No change; TRS (%) (−20° C. (control), 7 d): 1.23% and 1.22%; Appearance (−20° C. (control), 14 d): No change; TRS (%) (−20° C. (control), 14 d): 1.24% and 1.23%
2 | Cc1nc(-c2ccc(OCC(C)C)c(C#N)c2)sc1C(=O)O [Form V, 2-(3-cyano-4-isobutoxyphenyl)-4-methyl-5-thiazolecarboxylic acid] | no significant change | 100.62 | No change | 0.45% | 100.01 | No change | 0.46% and 0.47% | 99.40 | No change | 0.47% and 0.48% | 99.03 | No change | 0.50% and 0.52% | 100.65 | No change | 0.53% and 0.51% | 100.06 | No change | 0.54% and 0.53% | 98.20 | Appearance (60° C./75% RH, 7 d): No change; TRS (%) (60° C./75% RH, 7 d): 0.51% and 0.52%; Remaining (%) (60° C./75% RH, 14 d): 98.87%; Appearance (60° C./75% RH, 14 d): No change; TRS (%) (60° C./75% RH, 14 d): 0.52% and 0.53%; Remaining (%) (Light, 7 d): 97.74%; Appearance (Light, 7 d): Light yellow; TRS (%) (Light, 7 d): 1.02% and 1.18%; Remaining (%) (Light, 14 d): 94.06%; Appearance (Light, 14 d): Light yellow; TRS (%) (Light, 14 d): 5.99% and 5.08%; Appearance (−20° C. (control), 7 d): No change; TRS (%) (−20° C. (control), 7 d): 0.40% and 0.39%; Appearance (−20° C. (control), 14 d): No change; TRS (%) (−20° C. (control), 14 d): 0.42% and 0.41%
3 | Cc1nc(-c2ccc(OCC(C)C)c(C#N)c2)sc1C(=O)O [Form XI, 2-(3-cyano-4-isobutoxyphenyl)-4-methyl-5-thiazolecarboxylic acid] | no significant change | 99.02 | No change | 1.25% and 1.24% | 100.12 | No change | 1.26% and 1.27% | 99.02 | No change | 1.28% | 100.75 | No change | 1.30% and 1.29% | 98.56 | No change | 1.31% and 1.30% | 99.72 | No change | 1.33% | 98.44 | Appearance (60° C./75% RH, 7 d): No change; TRS (%) (60° C./75% RH, 7 d): 1.33% and 1.31%; Remaining (%) (60° C./75% RH, 14 d): 99.82%; Appearance (60° C./75% RH, 14 d): No change; TRS (%) (60° C./75% RH, 14 d): 1.35% and 1.36%; Remaining (%) (Light, 7 d): 96.26%; Appearance (Light, 7 d): Light yellow; TRS (%) (Light, 7 d): 1.86% and 2.09%; Remaining (%) (Light, 14 d): 95.06%; Appearance (Light, 14 d): Light yellow; TRS (%) (Light, 14 d): 4.88% and 4.32%; Appearance (−20° C. (control), 7 d): No change; TRS (%) (−20° C. (control), 7 d): 1.22%; Appearance (−20° C. (control), 14 d): No change; TRS (%) (−20° C. (control), 14 d): 1.23%

From US20130225830A1, “POLYMORPHS OF FEBUXOSTAT” (MAPI PHARMA LIMITED, priority 2010, published 2013)
